Experimental data from patent US11337627B2, “Bioelectrode for detection and/or oxidation of glucose, its production method and device” (CENTRE NATIONAL DE LA RECHERCHE SCIENTIFIQUE, priority 2016, dated 2022).

Assays:
FAD-GDH enzyme [1] = experiment: Cyclic voltammetry of bioelectrodes (carbon nanotubes / aromatic molecule / FAD-GDH) without and with glucose; type: biochemical
Experimental: In FIG. 4, the following terms have the following meanings: • uCNT=carbon nanotubes alone, • FADGDH=CNTs functionalized by FAD-GDH, • 25 mM glucose=CNTs functionalized by FAD-GDH in the presence of a glucose solution at 25 mmol L^−1, • 25 mM glucose (FAD region)=same as above, including the electroactive region of the FAD-GDH cofactor (FAD) in the measurement window in the presence of a glucose solution at 25 mmol L^−1, • FAD=Flavin Adenine Dinucleotide, • 25 mM glucose=concentration of the glucose solution of 25 mmol L^−1, • PYR-NHS=N-hydroxysuccinimide ester of pyrene-butyric acid, • PYR=pyrene, • 1.4-NQ=1.4-naphthoquinone, • PQ=9.10-phenanthrenequinone, • PL=1.10-phenanthroline, • MPL=5-methyl-1.10-phenanthroline, • PLQ=1.10-phenanthroline-5.6-dione.
The tested electrode was a vitreous carbon electrode (support 1) coated with layer 2 of carbon nanotubes alone (Comparative Example 2) or in which the FAD-GDH enzyme alone was deposited on layer 2 of carbon nanotubes (Comparative Example 4).
The dashed curve denoted 3 represents the cyclic voltammogram obtained with a larger electrochemical window (from −0.600 to 0.100 V vs SCE), in the presence of a glucose solution at 25 mmol L^−1.
In FIG. 4, the cartridge C represents the cyclic voltammograms of the electrode of Comparative Example 6 consisting of a vitreous carbon electrode, of layer 2 of carbon nanotubes functionalized by layer 3 of an aromatic molecule which is 1-pyrenebutyric acid N-hydroxysuccinimide ester (PANHS).
Cartridges D, G and H represent the cyclic voltammograms of the electrodes obtained in Examples 4, 5 and 6 respectively.
Cartridges E, F and I show the cyclic voltammograms obtained with the electrodes obtained in Examples 7, 8 and 1 respectively.

FAD-GDH enzyme [2] = experiment: Cyclic voltammetric inhibition assays: FAD-GDH directly on carbon nanotubes, aromatic molecules added in solution; type: biochemical; conditions: 100 mmol L^−1 glucose; for catalytic current when the aromatic molecule is present in solution, versus absence of redox mediator: electrode of Comparative Example 4; for effect on performance of bioelectrocatalysis over time (inhibition of FAD-GDH): added in solution; for effect on catalytic currents (inhibition of FAD-GDH): 200 μmol L^−1 in solution, sampling times of less than three hours
Experimental: They were obtained with electrodes whose layer of FAD-GDH enzymes is directly deposited on layer 2 of carbon nanotubes in the presence of 100 mmol L^−1 of glucose solution.
The aromatic molecules 9.10-phenanthrenequinone, 1.10-phenanthroline-5.6-dione, phenanthrene and 1.10-phenanthroline are then gradually added in solution.
0 μM PX=CNTs functionalized by FAD-GDH in the presence of a glucose solution at 100 mmol L^−1 and in the absence of any aromatic molecules (X representing the aromatic molecule PLQ (cartridge A) or PQ (cartridge B))
400 μM PX=CNTs functionalized by FAD-GDH in the presence of a glucose solution at 100 mmol L^−1 and 400 μmol L^−1 of an aromatic molecule PLQ (cartridge A) or PQ (cartridge B)
400 μM PX (180 min)=CNTs functionalized by FAD-GDH in the presence of a glucose solution at 100 mmol L^−1 and […] of an aromatic molecule PLQ (cartridge A) or PQ (cartridge B) after incubation in the solution with a duration of 180 minutes.
200 μM PQ=CNTs functionalized by FAD-GDH in the presence of a solution of glucose at 100 mmol L^−1 and 200 μmol L^−1 of an aromatic molecule PQ (cartridge C and D)
200 μM PQ+200 μM PY (180 min)=CNTs functionalized by FAD-GDH in the presence of a glucose solution at 100 mmol L^−1, 200 μmol L^−1 of an aromatic molecule PQ and 200 μmol L^−1 of an aromatic molecule PY after incubation in the solution for a duration of 180 minutes. (Y represents the aromatic molecule PL (cartridge C) or PH (cartridge D)). • PLQ=1.10-phenanthroline-5.6-dione. • PQ=9.10-phenanthrenequinone, • PL=1.10-phenanthroline, • PH=phenanthrene,
The electrode tested was a vitreous carbon electrode (support 1) in which the FAD-GDH enzyme alone was deposited on layer 2 of carbon nanotubes (Comparative Example 4).

FAD-GDH enzyme [3] = experiment: as above; type: biochemical; conditions: 100 mmol L^−1 glucose, 400 μmol L^−1 aromatic molecule
enzyme FAD-GDH = conditions: known; supplier catalog; cited from earlier work

O=C1C(=O)c2cccnc2-c2ncccc21 [1.10-phenanthroline-5.6-dione]
glucose concentration at saturation (FAD-GDH enzyme [1]; aromatic molecule immobilized on carbon nanotube layer with FAD-GDH): ~130 mmol/L | electrocatalytic current (FAD-GDH enzyme [1]; aromatic molecule immobilized on carbon nanotube layer with FAD-GDH, potentials higher than 0 V vs SCE, after saturation with glucose): 600-700 μA | electron transfer behavior of the aromatic molecule towards FAD-GDH (FAD-GDH enzyme [1]; non-covalent immobilization on a layer of carbon nanotubes): the best redox aromatic molecule | catalytic current when the aromatic molecule is present in solution, versus absence of redox mediator (FAD-GDH enzyme [2]): strong increase in the catalytic current | effect on performance of bioelectrocatalysis over time (inhibition of FAD-GDH) (FAD-GDH enzyme [2]): progressive decrease in the performance of bioelectrocatalysis | change of catalytic current after 180 min incubation (inhibition of FAD-GDH) (FAD-GDH enzyme [3]): sharp decrease in the catalytic current

c1cnc2c(c1)ccc1cccnc12 [1.10-phenanthroline]
change of catalytic current after 180 min incubation together with PQ (inhibition of FAD-GDH) (FAD-GDH enzyme [2]; 200 μmol L^−1 PQ and 200 μmol L^−1 tested molecule, 180 min): The catalytic current drops again | effect on performance of bioelectrocatalysis over time (inhibition of FAD-GDH) (FAD-GDH enzyme [2]): progressive decrease in the performance of bioelectrocatalysis | inhibitory activity for FAD-GDH oxidation of glucose (enzyme FAD-GDH): inhibitor of the enzyme FAD-GDH

O=C1C(=O)c2ccccc2-c2ccccc21 [9.10-phenanthrenequinone]
effect on catalytic currents (inhibition of FAD-GDH) (FAD-GDH enzyme [2]): does not cause a drastic decrease in the catalytic currents | catalytic current when the aromatic molecule is present in solution, versus absence of redox mediator (FAD-GDH enzyme [2]): strong increase of the catalytic current | change of catalytic current after 180 min incubation (inhibition of FAD-GDH) (FAD-GDH enzyme [3]): no decrease in the catalytic current

c1ccc2c(c1)ccc1ccccc12 [phenanthrene]
effect on catalytic currents (inhibition of FAD-GDH) (FAD-GDH enzyme [2]): does not cause a drastic decrease in the catalytic currents
